In ChEMBL document CHEMBL4619722, “Alanine scan-guided synthesis and biological evaluation of analogues of culicinin D, a potent anticancer peptaibol” (Bioorg Med Chem Lett, 2020):
Numbered stars: 1 amine (or outer) side, 2 acyl side, 3 side chain; on linkers, the order of the positions; unused ones are H or OH. Square brackets hold non-standard residues; d marks the D form. Peptide text beside a SMILES is read from it. * marks the point of attachment. X1 = CCC(=O)C[C@H](O)C[C@@H](C)C[C@H](N[*:1])C(=O)[*:2]; Gly(1-adamantyl) = N[C@H](C(=O)O)C12CC3CC(CC(C3)C1)C2; NH((S)CH(Me)CH2NHC2H4OH) = C[C@@H](CNCCO)N*; Gly(octyl) = CCCCCCCC[C@H](N)C(=O)O; Ala(cPr) = N[C@@H](CC1CC1)C(=O)O; Cha = N[C@@H](CC1CCCCC1)C(=O)O; Chg = N[C@H](C(=O)O)C1CCCCC1; Ac6c = NC1(C(=O)O)CCCCC1; Ac5c = NC1(C(=O)O)CCCC1; Aib = CC(C)(N)C(=O)O; Butyryl = CCCC(=O)*; βAla = NCCC(=O)O

Key:
Type in all cases: functional, cell-based
NCI-H460 = experiment: Antiproliferative activity against human NCI-H460 cells
T47D = experiment: Antiproliferative activity against human T47D cells
MDA-MB-468 = experiment: Antiproliferative activity against human MDA-MB-468 cells
SK-BR-3 = experiment: Antiproliferative activity against human SKBR3 cells

| SMILES | IC50 (NCI-H460) [µM] | IC50 (T47D) [µM] | IC50 (MDA-MB-468) [µM] | IC50 (SK-BR-3) [µM] |
| --- | --- | --- | --- | --- |
| CCCCCCCC[C@H](NC(=O)C(C)(C)NC(=O)C(C)(C)NC(=O)C1(NC(=O)[C@@H]2CCCN2C(=O)CCC)CCCC1)C(=O)N[C@@H](CC(C)C)C(=O)NC(C)(C)C(=O)N[C@@H](CC(C)C)C(=O)NCCC(=O)N[C@@H](C)CNCCO (Butyryl-P[Ac5c][Aib][Aib][Gly(octyl)]L[Aib]L[βAla]-{NH((S)CH(Me)CH2NHC2H4OH)}) | 0.036 | 0.029 | 0.029 | 0.118 |
| CCCCCCCC[C@H](NC(=O)C(C)(C)NC(=O)C(C)(C)NC(=O)C1(NC(=O)[C@@H]2CCCN2C(=O)CCC)CCCCC1)C(=O)N[C@@H](CC(C)C)C(=O)NC(C)(C)C(=O)N[C@@H](CC(C)C)C(=O)NCCC(=O)N[C@@H](C)CNCCO (Butyryl-P[Ac6c][Aib][Aib][Gly(octyl)]L[Aib]L[βAla]-{NH((S)CH(Me)CH2NHC2H4OH)}) | 0.039 | 0.025 | 0.031 | 0.096 |
| CCCCCCCC[C@H](NC(=O)C(C)(C)NC(=O)C(C)(C)NC(=O)C(C)(C)NC(=O)[C@@H]1CCCN1C(=O)CCC)C(=O)N[C@@H](CC(C)C)C(=O)NC(C)(C)C(=O)N[C@@H](CC(C)C)C(=O)NCCC(=O)N[C@@H](C)CNCCO (Butyryl-P[Aib][Aib][Aib][Gly(octyl)]L[Aib]L[βAla]-{NH((S)CH(Me)CH2NHC2H4OH)}) | 0.057 | 0.029 | 0.048 | 0.15 |
| CCCCCCCC[C@H](NC(=O)C(C)(C)NC(=O)C(C)(C)NC(=O)[C@H](CC1CC1)NC(=O)[C@@H]1CCCN1C(=O)CCC)C(=O)N[C@@H](CC(C)C)C(=O)NC(C)(C)C(=O)N[C@@H](CC(C)C)C(=O)NCCC(=O)N[C@@H](C)CNCCO (Butyryl-P[Ala(cPr)][Aib][Aib][Gly(octyl)]L[Aib]L[βAla]-{NH((S)CH(Me)CH2NHC2H4OH)}) | 0.008 | 0.01 | 0.01 | 0.029 |
| CCCCCCCC[C@H](NC(=O)C(C)(C)NC(=O)C(C)(C)NC(=O)[C@H](CC1CCCCC1)NC(=O)[C@@H]1CCCN1C(=O)CCC)C(=O)N[C@@H](CC(C)C)C(=O)NC(C)(C)C(=O)N[C@@H](CC(C)C)C(=O)NCCC(=O)N[C@@H](C)CNCCO (Butyryl-P[Cha][Aib][Aib][Gly(octyl)]L[Aib]L[βAla]-{NH((S)CH(Me)CH2NHC2H4OH)}) | 0.002 | 0.004 | 0.003 | 0.012 |
| CCCCCCCC[C@H](NC(=O)C(C)(C)NC(=O)C(C)(C)NC(=O)[C@@H](NC(=O)[C@@H]1CCCN1C(=O)CCC)C1CCCCC1)C(=O)N[C@@H](CC(C)C)C(=O)NC(C)(C)C(=O)N[C@@H](CC(C)C)C(=O)NCCC(=O)N[C@@H](C)CNCCO (Butyryl-P[Chg][Aib][Aib][Gly(octyl)]L[Aib]L[βAla]-{NH((S)CH(Me)CH2NHC2H4OH)}) | 0.006 | 0.008 | 0.01 | 0.021 |
| CCCCCCCC[C@H](NC(=O)C(C)(C)NC(=O)C(C)(C)NC(=O)[C@@H](NC(=O)[C@@H]1CCCN1C(=O)CCC)C12CC3CC(CC(C3)C1)C2)C(=O)N[C@@H](CC(C)C)C(=O)NC(C)(C)C(=O)N[C@@H](CC(C)C)C(=O)NCCC(=O)N[C@@H](C)CNCCO (Butyryl-P[Gly(1-adamantyl)][Aib][Aib][Gly(octyl)]L[Aib]L[βAla]-{NH((S)CH(Me)CH2NHC2H4OH)}) | 0.017 | 0.016 | 0.021 | 0.072 |
| CCCCCCCC[C@H](NC(=O)[C@@H]1CCCN1C(=O)CCC)C(=O)NC(C)(C)C(=O)NC(C)(C)C(=O)N[C@@H](CCCCCCCC)C(=O)N[C@@H](CC(C)C)C(=O)NC(C)(C)C(=O)N[C@@H](CC(C)C)C(=O)NCCC(=O)N[C@@H](C)CNCCO (Butyryl-P[Gly(octyl)][Aib][Aib][Gly(octyl)]L[Aib]L[βAla]-{NH((S)CH(Me)CH2NHC2H4OH)}) | 0.005 | 0.007 | 0.005 | 0.015 |
| CCCC(=O)N1CCC[C@H]1C(=O)N[C@@H](C[C@H](C)C[C@@H](O)CC(=O)CC)C(=O)NC(C)(C)C(=O)NC(C)(C)C(=O)N[C@@H](C)C(=O)N[C@@H](CC(C)C)C(=O)NC(C)(C)C(=O)N[C@@H](CC(C)C)C(=O)NCCC(=O)N[C@@H](C)CNCCO (Butyryl-P[X1][Aib][Aib]AL[Aib]L[βAla]-{NH((S)CH(Me)CH2NHC2H4OH)}) | > 10 | > 1 | > 1 | > 30 |
| CCCC(=O)N1CCC[C@H]1C(=O)N[C@@H](C[C@H](C)C[C@@H](O)CC(=O)CC)C(=O)NC(C)(C)C(=O)NC(C)(C)C(=O)N[C@H](C(=O)N[C@@H](CC(C)C)C(=O)NC(C)(C)C(=O)N[C@@H](CC(C)C)C(=O)NCCC(=O)N[C@@H](C)CNCCO)[C@@H](C)CC (Butyryl-P[X1][Aib][Aib]IL[Aib]L[βAla]-{NH((S)CH(Me)CH2NHC2H4OH)}) | > 0.5 | 0.251 | 0.142 | > 1 |
| CCCC(=O)N1CCC[C@H]1C(=O)N[C@@H](C[C@H](C)C[C@@H](O)CC(=O)CC)C(=O)NC(C)(C)C(=O)NC(C)(C)C(=O)N[C@@H](CC(C)C)C(=O)N[C@@H](CC(C)C)C(=O)NC(C)(C)C(=O)N[C@@H](CC(C)C)C(=O)NCCC(=O)N[C@@H](C)CNCCO (Butyryl-P[X1][Aib][Aib]LL[Aib]L[βAla]-{NH((S)CH(Me)CH2NHC2H4OH)}) | 0.496 | 0.13 | 0.09 | > 1 |
